Reference: ChEMBL document CHEMBL4414586, “Identification of CNS-Penetrant Aryl Sulfonamides as Isoform-Selective NaV1.6 Inhibitors with Efficacy in Mouse Models of Epilepsy” (J Med Chem, 2019)

Tests used:
physchem = settings: 1-octanol/PBS, pH 7.4
[1] = Ratio of drug uptake in 129/C57BL/6J mouse brain to plasma at 30 mg/kg, po after 2 hrs by UHPLC/MS/MS analysis; assay type: ADME, organism-based; settings: brain and plasma, read-out: BPR

logD at 1 h (physchem) | Kp at 2 h [1] | Structure (SMILES)
1.4 |  | O=S(=O)(Nc1cscn1)c1cc(Cl)c(NCc2cc(CN3CCC3)ccc2F)cc1F
3.4 | 0.28 | COc1ccc(F)c([C@H](C)Nc2cc(F)c(S(=O)(=O)Nc3cscn3)cc2Cl)c1
1.5 |  | C[C@H](Nc1cc(F)c(S(=O)(=O)Nc2cscn2)cc1Cl)c1cc(CN2CCC2)ccc1F
